Data published in PubChem BioAssay (NCI).
“And” between values parts separate entries of the source, which are not always exact repeats. Equal entries are not always repeated.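 The compound was tested at five concentrations on cells cultured in 96-well plates, with a 48-hour exposure period. At the GI50, growth is halved. At the TGI there is no net growth.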

Key:
Experiment in all cases: inhibition of tumour cell growth, NCI panel, 48 h
DU-145 prostate = system: DU-145 prostate
HOP-92 NSCLC = system: HOP-92 NSCLC
K-562 leukemia = system: K-562 leukemia
LOX IMVI melanoma = system: LOX IMVI melanoma
M14 melanoma = system: M14 melanoma
MDA-MB-435 = system: MDA-MB-435
NCI-H522 lung = system: NCI-H522 lung
U251 CNS = system: U251 CNS
UACC-62 melanoma = system: UACC-62 melanoma
RPMI-8226 leukemia = system: RPMI-8226 leukemia

Structure (SMILES) | GI50 (DU-145 prostate) [µM] | TGI (DU-145 prostate) [µM] | GI50 (HOP-92 NSCLC) [µM] | TGI (HOP-92 NSCLC) | GI50 (K-562 leukemia) [µM] | TGI (K-562 leukemia) [µM] | GI50 (LOX IMVI melanoma) [µM] | TGI (LOX IMVI melanoma) | GI50 (M14 melanoma) [µM] | TGI (M14 melanoma) [µM] | GI50 (MDA-MB-435) [µM] | TGI (MDA-MB-435) [µM] | GI50 (NCI-H522 lung) [µM] | TGI (NCI-H522 lung) | GI50 (U251 CNS) [µM] | TGI (U251 CNS) [µM] | GI50 (UACC-62 melanoma) [µM] | TGI (UACC-62 melanoma) [µM] | TGI (RPMI-8226 leukemia) [µM] | GI50 (RPMI-8226 leukemia) [µM]
Cc1cc(NC(=O)c2cnc(N3CCN(CCOCCOCCOCCOCCC(=O)N[C@H](C(=O)N4C[C@H](O)C[C@H]4C(=O)N[C@@H](C)c4ccc(-c5scnc5C)cc4)C(C)(C)C)CC3)cn2)c2ncccc2c1 | 6.16 | > 100 | 2.3 | 9.37 µM | 3.1 | > 100 | 1.84 | 3.39 µM | 2.19 | 4.94 | 2.25 | 5.38 | 1.96 | 6.16 µM | 2.74 | 7.92 | 1.71 | 3.36 | – | –
COCCOCOC(C)(C)[C@H](CCOC(C)=O)O[Si](c1ccccc1)(c1ccccc1)C(C)(C)C | – | – | – | 27.9 µM | – | 28.8 | – | 27.6 µM | – | 49.4 | – | – | – | 29.4 µM | – | 30.6 | – | 55.3 | 15.1 | –
NC(=O)C12CC3CC(CC(Br)(C3)C1)C2 | – | – | – | > 100 µM | – | – | – | > 100 µM | – | > 100 | – | – | – | > 100 µM | – | > 100 | – | > 100 | > 100 | –
O=C(CCc1nc(=S)[nH][nH]1)Nc1cccc(C(F)(F)F)c1 | – | – | – | > 100 µM | – | > 100 | – | > 100 µM | – | > 100 | – | – | – | > 100 µM | – | > 100 | – | > 100 | > 100 | –
COc1ccc(-c2onc(-c3c(C)cc(C)cc3C)c2C2=NCCN2)cc1 | – | – | – | – | – | > 100 | – | > 100 µM | – | 35.8 | – | – | – | – | – | 46.7 | – | > 100 | > 100 | –
CCCCc1c2c(nc3c1CCc1cc4cc5c(nc4nc1-3)-c1nc3c(c(CCCC)c1CC5)CCC/C3=C\c1ccccc1)/C(=C/c1ccccc1)CCC2 | – | – | – | – | – | > 100 | – | > 100 µM | – | > 100 | – | – | – | > 100 µM | – | > 100 | – | > 100 | > 100 | –
CC(=O)NNc1nc(C)c(C(=O)/C=C/c2ccc(/C=C/C(=O)c3sc(NNC(C)=O)nc3C)cc2)s1 | – | – | – | – | – | > 100 | – | > 100 µM | – | > 100 | – | – | – | > 100 µM | – | > 100 | – | > 100 | – | –
CCN(C(=O)CN1CCN(c2cc3c(cc2F)c(=O)c(C(=O)O)cn3CC)CC1)c1nc(-c2ccccc2)cs1 | 0.453 | > 100 | 0.23 | 0.585 µM | 0.337 | > 100 | 0.325 | > 100 µM | 0.363 | > 100 | 0.306 | > 100 | 0.259 | 0.813 µM | 0.354 | > 100 | – | – | > 100 | 0.344
CCC1C(=O)OCc2c1cc1n(c2=O)C(CC)c2c-1nc1ccccc1c2Cl (configuration not stated) | – | – | – | > 100 µM | – | > 100 | – | > 100 µM | – | > 100 | – | – | – | 35 µM | – | 49.4 | – | > 100 | 50 | –
C#C[C@H]1CCCCCC1O (some centres not stated) | – | – | – | > 100 µM | – | > 100 | – | > 100 µM | – | > 100 | – | – | – | > 100 µM | – | > 100 | – | > 100 | – | –
CCCCCCCCCCCCCP(=O)(NCC(N)=O)OCC (configuration not stated) | – | – | – | 31.1 µM | – | – | – | – | – | 30.6 | – | – | – | – | – | 33 | – | 33 | – | –
CN1CCc2c1nc(-c1cccnc1)c1c2N(C)CC1 | – | – | – | > 100 µM | – | > 100 | – | > 100 µM | – | > 100 | – | – | – | – | – | > 100 | – | > 100 | > 100 | –
COC(=O)C#CCC1CCCC1C1SCCS1 (configuration not stated) | – | – | – | > 100 µM | – | > 100 | – | > 100 µM | – | > 100 | – | – | – | > 100 µM | – | > 100 | – | > 100 | – | –
O=C(N/C(=C\c1cc(Cl)ccc1Cl)c1nc2ccc(Cl)cc2[nH]1)c1ccccc1 | – | – | – | 24.4 µM | – | 41.1 | – | 26.4 µM | – | 31.1 | – | – | – | 25 µM | – | 30.1 | – | 24.8 | 40.4 | –
COc1ccc2c(c1)C(=O)c1c-2c(N2CCNCC2)nc2ccccc12 | 1.89 | 4.73 | – | – | 2.64 | > 100 | 1.79 | 3.5 µM | 1.91 | 3.51 | 4.93 | 17.9 | 3.95 | 17 µM | 4.6 | 16.6 | 3.55 | 12.1 | 3.39 | 1.64
Nc1ncnc2c1nnn2C1C=C(CO)C(O)C1O (configuration not stated) | – | – | – | > 80.2 µM | – | > 100 | – | > 55.3 µM | – | > 100 | – | – | – | > 100 µM | – | > 100 | – | > 100 | > 62.7 | –
COC1(C)C(=O)N2C1N(C(=O)OCc1ccccc1)CC2(C)C (configuration not stated) | – | – | – | – | – | > 100 | – | > 100 µM | – | > 100 | – | – | – | – | – | > 100 | – | > 100 | > 100 | –
O=C(NCC(=O)N1CCOC1=O)OCc1ccccc1 | – | – | – | > 100 µM | – | > 100 | – | > 100 µM | – | > 100 | – | – | – | > 100 µM | – | > 100 | – | > 100 | > 100 | –
NCCC(=O)NC(Cc1cnc[nH]1)C(=O)O (configuration not stated) | – | > 100 | – | > 100 µM | – | > 100 | – | > 100 µM | – | > 100 | – | > 100 | – | > 100 µM | – | > 100 | – | – | > 100 | –
COc1cccc2c1[C@H]1CO[C@H]3C4C[C@H](C(=O)O)C([C@@H](C2)N13)N4C (some centres not stated) | – | – | 0.684 | 4.55 µM and 3.22 µM | 0.397 | – | – | 3.29 µM and > 23.9 µM | – | 6.35 | – | 0.204 | 0.0497 | 0.914 µM and 0.109 µM | 0.5 | 5.52 | 0.0475 | – | – | –
CCOC(=O)C1=C(C)N2C(=NC3=C(CCC/C3=C\c3ccc(Cl)cc3)C2c2ccc(Cl)cc2)S1 (configuration not stated) | 3.92 | 17.6 | – | – | 3.45 | 11.8 | 1.75 | 3.15 µM | – | – | 2.93 | 14.2 | 3.84 | 17.8 µM | 1.86 | 4.06 | 3.25 | 16.8 | 4.04 | 1.22
COC(=O)/C(C#N)=C1\CCc2ccccc21 | – | – | – | > 100 µM | – | > 100 | – | > 100 µM | – | > 100 | – | – | – | > 100 µM | – | – | – | > 100 | > 100 | –
